# Source: PubChem BioAssay AID2305 (GlaxoSmithKline (GSK), 2010)
# Values joined by “and” are separate entries in the source; they are usually repeats but may differ in a detail not shown here. Equal entries are not always repeated.
# Test system: P. falciparum 3D7 growth, pLDH absorbance
# Experiment: P. falciparum 3D7 growth inhibition, dose response, strain 3D7 (AID 2305)
row,Structure (SMILES),IC50
1,CC(Cc1ccc(OCCCCOc2ccccc2)cc1)NCCC1CCCN1C (stereo not given),40 nM
2,COc1ccc2c(=O)c(C3CCC(c4ccc(Cl)cc4)CC3)c(C)[nH]c2c1 (stereo not given),650 nM
3,Cc1cc(OCCCN2CCC(NS(=O)(=O)c3ccc(Cl)c(Cl)c3)C2)c2ccccc2n1 (stereo not given),1050 nM
4,C=CCc1cc(Cc2cnc(N)nc2N)c2ccc(C)nc2c1OC,690 nM
5,CCC(C)C(COC(=O)c1cc(OC)c(OC)c(OC)c1)N(C)CCN(C)C(COC(=O)c1cc(OC)c(OC)c(OC)c1)C(C)CC (stereo not given),950 nM
6,Cc1nnc2c(NC(=O)NC3CCCC3)cc3ccc(-c4cccc(CN(C)C)c4)cc3n12,1160 nM
7,CC(=Nc1ccc(Cl)c(Cl)c1)N(C)C,540 nM
8,Cc1ccc(-c2nc(NC(=O)Nc3ccc(C(F)(F)F)cc3)sc2C)cc1Cl,660 nM
9,CCN(CCNc1nc(NCCc2cnc[nH]2)nc(N(CCC#N)Cc2ccccc2)n1)c1cccc(C)c1,710 nM
10,COCCNC(=O)c1ccc(OC2CCN(Cc3ccc(F)c(F)c3)CC2)c(Cl)c1,1490 nM
11,COc1ccc2nccc([C@@H](O)CN3CCC(NCc4cc5cc(C)ccc5s4)CC3)c2c1,640 nM
12,COc1ccc2c(=O)c(-c3ccc(OC(F)(F)F)cc3)c(C)[nH]c2c1,230 nM
13,CC(=O)Nc1ccc(C(=O)Nc2ccc(-c3cccc(-c4nc5ccc(C(F)(F)F)cc5[nH]4)c3)cc2)cn1,110 nM
14,O=C(Nc1cccc(-c2cccc(-c3nc4ccc(F)cc4[nH]3)c2)c1)c1cnc[nH]1,460 nM
15,CC(=O)Nc1ccc(CNC2Cc3ccc(-c4ccc(Cl)c(Cl)c4)cc3C2)cc1 (stereo not given),1000 nM
16,CCN(CC)C(=O)C1CCCN(C(=O)Nc2cc(C(F)(F)F)cc(C(F)(F)F)c2)C1 (stereo not given),1000 nM
17,COc1cc2c(cc1N(C(C)C)S(=O)(=O)c1sc3ccc(Cl)cc3c1C)CCNCC2,1050 nM
18,CCN1CCC(N(Cc2ccc(-c3ccc(C(F)(F)F)cc3)o2)C(=O)Cn2c(CCc3cccc(F)c3F)nc(=O)c3ccccc32)CC1,1140 nM
19,COC(=O)c1ccc(CC(C)NCC(O)c2ccc3ccc4ccccc4c3c2)cc1 (stereo not given),220 nM
20,Cc1cc(N[C@@H](CC(C)C)C(=O)NCCc2ccccc2)nc(NCC2CCCCC2)n1,900 nM
21,Cc1ccc2c(Cl)c(C(=O)N3CCCc4ccccc43)sc2c1,1510 nM
22,COc1ccc(-c2cccc(NC(=O)c3cccc(C#N)c3)c2)cc1CNC(C)C,690 nM
23,CC(C)(C)CCN1CCC(NC(=O)c2ccc(-c3cccc(C(F)(F)F)c3)s2)CC1,760 nM
24,CCc1ccc(-c2nc3cc(NC(=O)c4cc([N+](=O)[O-])cc([N+](=O)[O-])c4)ccc3o2)cc1,930 nM
25,CCCCCCNc1c2ccccc2nc2ccccc12,950 nM

row,Structure (SMILES),IC50
1,CCCCn1c(Sc2ccc(C#N)c([N+](=O)[O-])c2)nnc1-c1cc(OC)cc(OC)c1,820 nM
2,CN(C)CCCNCc1cn(S(=O)(=O)c2ccccc2Cl)c2ccccc12,1070 nM
3,CN(C)c1ccc(-c2nnc(Sc3ccc(C#N)c([N+](=O)[O-])c3)n2Cc2ccco2)cc1,850 nM
4,NCc1ccc(CNCc2ccc(-c3ccc(-c4nc5ccc(F)cc5[nH]4)cc3)cc2)cc1,400 nM
5,Cc1[nH]c(C)c(-c2ccc(-c3ccc(C(F)(F)F)cc3C(F)(F)F)nc2)c(=O)c1Br,190 nM
6,COc1ccc(CN2CCC(Oc3cccc(NC(=O)c4ccc(C(F)(F)F)cc4)c3)CC2)cc1,740 nM
7,COc1ccc2c(NN=Cc3cccnc3)ccnc2c1,680 nM
8,O=C(Nc1ccc(CCNCc2ccccc2)cc1)Nc1ccc(OC(F)(F)F)cc1,580 nM
9,Cc1c(CN2CCCCC2)cccc1OCCCNc1nc(NCCc2ccc(O)cc2)nc(N2CCNCC2)n1,220 nM
10,COCC(C)n1c(SC(C)C(=O)Nc2cc([N+](=O)[O-])ccc2Cl)nc2ccccc2c1=O (stereo not given),230 nM
11,Cc1cc(N)cc2[nH]c(-c3ccc(N)cc3)nc12,890 nM
12,CCCCCCCN(Cc1ccc(OC(C)(C)C(=O)OCC)cc1)C(=O)Nc1ccc(Cl)cc1OCC,820 nM
13,Cc1cc(-c2nc3ccc(C(=O)NCc4ccccc4)cc3n2C2CCN(C(=O)c3ccc(-c4ccccc4)cc3)CC2)ccn1,900 nM
14,O=C(NCc1ccco1)c1ccc(S(=O)(=O)c2ccc(Cl)cc2)cc1,450 nM
15,O=C(Nc1ccc2c(c1)CCN2C1CCN(Cc2csc3ccccc23)C1)c1ccco1 (stereo not given),320 nM
16,O=C(N[C@H]1CCN(Cc2ccc(OCCN3CCCC3)c(Cl)c2)C1)c1ccc(Cl)c(Cl)c1,920 nM
17,CCCCCc1cc(O)c2c(c1)OC(C)(C)CC2C1=CCN(Cc2cccnc2)CC1 (stereo not given),990 nM
18,Oc1cccc(C2CCCN(Cc3cccc4cc[nH]c34)C2)c1 (stereo not given),510 nM
19,CCC(CC)N1C(=O)C(c2ccccc2)(c2ccccc2)N=C1N,800 nM
20,O=C(Nc1ccc([N+](=O)[O-])cc1Cl)c1cc(Br)cc(Cc2ccccc2)c1O,1290 nM
21,Cc1c(F)cc(C(=O)NC2CC2)cc1-c1ccc2c(c1)c(C)nn2S(=O)(=O)c1cccs1,940 nM
22,Clc1ccc2c(NCc3ccccn3)ccnc2c1,660 nM
23,O=C1COC2(CN1C1CCN(Cc3ccc(O)cc3Cl)C1)c1ccccc1-c1ccccc12 (stereo not given),1330 nM
24,c1ccc(COc2ccccc2COc2ccccc2-c2ccc3cccnc3n2)cc1,920 nM
25,CC(C)(CNCc1ccc(OC(F)(F)F)cc1)c1nc(-c2ccc(Cl)c(O)c2)c(-c2ccncc2)[nH]1,550 nM

row,Structure (SMILES),IC50
1,Fc1cccc(COc2ccc(Nc3ncnc4ccc(C#C[C@H]5CCCN5)cc34)cc2Cl)c1,880 nM
2,O=C1Nc2cccc3c2C1(CCCCN1CCC(c2c[nH]c4cc(C(F)(F)F)ccc24)CC1)CCC3 (stereo not given),720 nM
3,Fc1ccc2nc(-c3ccc(-c4ccc(CNCc5ccccc5)cc4)cc3)[nH]c2c1,280 nM
4,CN1CCN(CC(=O)Nc2ccc(-c3ccc(-c4nc5ccccc5[nH]4)s3)cc2)CC1,300 nM
5,Cc1ccc2nc3c(cc(C(=O)NCc4ccccc4)c(=N)n3CCCn3ccnc3)c(=O)n2c1,990 nM
6,Cc1[nH]c2ccccc2c1C=NNc1nc(Nc2ccccc2)nc(Nc2ccccc2)n1,930 nM
7,Cn1nc2ccc3ccccc3c2nc1=N,770 nM
8,O=C(C=Cc1ccc([N+](=O)[O-])cc1)NC1CCC(CN2CCC(c3c[nH]c4ccccc34)CC2)CC1 (stereo not given),790 nM and 840 nM
9,COC(=O)c1ccc2nc(-c3cc(-c4cccc(-c5ccccc5)c4)cnc3N)[nH]c2c1,210 nM
10,Cc1c(-c2cccc(NC(=O)C(C)(C)Oc3ccc(Cl)cc3)c2)nc2ncccn12,170 nM
11,CC(C)CC1c2[nH]c3ccccc3c(=O)c2CN1C(=O)OC(C)(C)C (stereo not given),220 nM
12,Cc1cc(-c2ccc3c(c2)CC[C@@H](N[C@@H](C)c2ccccc2)C3)cnc1N,1730 nM
13,OCC1CCN(Cc2cccc(-c3ccc(-c4nc5ccc(C(F)(F)F)cc5[nH]4)cc3)c2)CC1,660 nM
14,COc1ccc(O)c(-c2sc(N=C(N)N)nc2-c2ccccc2)c1,370 nM
15,FC(F)(F)c1cc(CNCCCNc2nc3ccncc3[nH]2)ccc1Cl,1010 nM
16,COc1cc(NCCCNCc2cn(Cc3cc(Br)cc(Br)c3)c3ccccc23)nc2ccccc12,180 nM
17,O=C(/C=C/c1ccc(-c2ccccc2)cc1)NCCCCCN1CCC(c2c[nH]c3ccccc23)CC1,850 nM
18,O=C(NCc1ccc(C(=O)N2CCC(N3CCCCC3)CC2)cc1)c1cc(-c2cccc(C(F)(F)F)c2)ccc1O,820 nM
19,CC(CN1CCN(C)CC1)C(=O)Nc1ccc(-c2csc(-c3nc4ccccc4[nH]3)c2)cc1 (stereo not given),840 nM
20,N#Cc1cncc(-c2nc3c(N4CCC(N5CCCC5)CC4)cccc3n2CCNCc2ccccc2)c1,870 nM
21,CN1CCC(C(=O)Nc2ccc(-c3ccc(-c4nc5ccccc5[nH]4)s3)cc2)CC1,820 nM
22,CNc1nc(NN=Cc2cc([N+](=O)[O-])c(Cl)cc2Cl)nc(Nc2cccc(C(F)(F)F)c2)n1,730 nM
23,O=C(Nc1ccc(CN2CCOCC2)cc1)c1ccc(-c2ccc(Cl)cc2)o1,860 nM
24,COC(=O)c1ccc(Nc2nccc(Nc3ccc(Oc4ccccc4)cc3)n2)cc1,1020 nM
25,CC(=O)Nc1ccc(Nc2cc(C)nc(Nc3ccc(NC(C)=O)cc3)n2)cc1,890 nM

row,Structure (SMILES),IC50
1,Nc1ccn([C@@H]2O[C@H](COC(c3ccccc3)(c3ccccc3)c3ccccc3)[C@@H](O)[C@@H]2O)c(=O)n1,830 nM
2,CCc1cccc(NC(=O)c2ccc(CN3CCCN(CC4CCCCC4)CC3)cc2)c1,400 nM
3,Oc1cc(Nc2ccnc3cc(-c4ccc(CN5CCCCC5)o4)ccc23)c(Cl)cc1F,120 nM
4,COc1ccc2nccc([C@@H](O)CN3CCC(NC(=O)c4cc5c(F)cc(F)cc5[nH]4)CC3)c2c1,240 nM
5,O=C(O)c1cccnc1Sc1ccc(Cl)cc1,830 nM
6,CN(C)CCOc1cc(NC(=O)Nc2ccc(-c3ccncc3)c(C(F)(F)F)c2)ccc1Cl,990 nM
7,COC(=O)CCCOc1cc(Cc2cnc(N)nc2N)cc(OC)c1OC,770 nM
8,COCCNCc1nc(-c2ccc3c(Nc4ccc(Cl)cc4F)ccnc3c2)cs1,1080 nM
9,c1ccc2oc(-c3cc4ccncc4cc3OC3CCNCC3)cc2c1,1470 nM
10,COC1(C)Oc2ccc3cccc([N+](=O)[O-])c3c2C1=O (stereo not given),630 nM
11,COc1ccc(NC(=O)/C=C/c2ccc(-c3ccccc3)cc2)cc1N1CCN(C)CC1,910 nM
12,CCn1c(Sc2ccc(C#N)c([N+](=O)[O-])c2)nnc1-c1cccc(Cl)c1,450 nM
13,COc1ccc(OCCCON)cc1,170 nM
14,COc1cc2nccc(Nc3ccc(OCc4ccccc4)cc3)c2cc1OC,200 nM
15,CCOc1ccc2c(NN=Cc3cccc(Cl)c3)cc(C)nc2c1,860 nM
16,O=C(NC1CCCCC1)N(CCCn1ccnc1)Cc1csc(-c2ccc(CNCc3ccccc3)cc2)n1,840 nM
17,Cc1cc(NN=Cc2ccc(F)cc2)c2cccc(C)c2n1,780 nM
18,O=C(Cc1cnc[nH]1)Nc1ccc(-c2ccc(-c3nc4ccc(F)cc4[nH]3)cc2)cc1,730 nM
19,COCC(=O)N(Cc1ccccc1-c1cccc(CNCc2ccc3c(c2)OCO3)c1)C1CCN(Cc2ccccc2)CC1,840 nM
20,CCN(CC)CCN(CCCc1ccc(-c2ccc(C(F)(F)F)cc2)cc1)C(=O)Cn1c(CCc2cccc(F)c2F)nc(=O)c2c1CCC2,830 nM
21,Cc1cc(NCC(C)C)c2[nH]nc(-c3ccccc3)c2n1,740 nM
22,O=c1cc(-c2ccc3ccccc3c2)[nH]c2ccccc12,1160 nM
23,CC(=O)Nc1cccc(C(=O)Nc2cccc(-c3ccc(-c4nc5ccc(C(F)(F)F)cc5[nH]4)s3)c2)c1,650 nM
24,COc1ccc(Cl)cc1NC(=O)Nc1ccc2c(c1)CCN(C1CCC1)CC2,810 nM
25,COc1ccc(OC)c(Cc2cnc3nc(N)[nH]c(=O)c3c2C)c1,360 nM
